Patent publication US11369599B2, “Melt-extruded solid dispersions containing an apoptosis-inducing agent” (AbbVie Inc., priority 2014, dated 2022)
Where two headings read alike, the source gives them in different places.

Tests used:
[1] = First-in-human Phase 1 study (safety, PK) in relapsed or refractory CLL; assay type: in vivo; conditions: for AUC(0-inf): read-out: AUC (AUCINF)
Method: Three subjects were enrolled in the first cohort of CLL arm.
Subject 1: bulky disease, initial dose=200 mg
Subject 2: non-bulky disease, initial dose=200 mg
Subject 3: bulky disease, initial dose=100 mg
The dosing scheme for CLL arm was as follows: single dose on Week 1 Day −3; QD dose started on Week 1 Day 1. PK sampling was done on Week 1 Day −3 and Week 3 Day 1.

Bcl-2 protein = Bcl-2 protein (Homo sapiens (Human), UniProt P10415); assay: TR-FRET (Time-Resolved Fluorescence-Resonance-Energy-Transfer) Bcl-2 binding assay
Excerpt: The smaller the Ki value, the greater is the binding affinity.

[2] = log D at pH 7.4 by an HPLC method; assay type: physicochemical
[3] = human CLL, Week 1 Day-3 single dose, Mean of 3 subjects
[4] = human CLL, Week 1 Day-3 single dose, Subject 1, 200 mg
[5] = human CLL, Week 1 Day-3 single dose, Subject 2, 200 mg
[6] = human CLL, Week 1 Day-3 single dose, Subject 3, 100 mg
[7] = human CLL, Week 3 Day 1, QD dosing, ID 101, 150 mg
[8] = human, plasma, oral, 100 mg, human CLL, Week 1 Day-3 single dose, Subject 3, 100 mg
[9] = human, plasma, oral, 200 mg, human CLL, Week 1 Day-3 single dose, Subject 1, 200 mg
[10] = human, plasma, oral, 200 mg, human CLL, Week 1 Day-3 single dose, Subject 2, 200 mg

Bcl-2 protein, sequence (P10415 whole entry): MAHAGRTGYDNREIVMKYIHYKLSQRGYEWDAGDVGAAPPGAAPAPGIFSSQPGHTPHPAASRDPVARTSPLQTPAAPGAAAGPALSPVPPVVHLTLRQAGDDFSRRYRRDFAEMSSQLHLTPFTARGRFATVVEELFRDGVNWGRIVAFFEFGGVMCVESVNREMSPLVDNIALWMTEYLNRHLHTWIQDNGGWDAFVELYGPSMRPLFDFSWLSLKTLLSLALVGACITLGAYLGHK

For `CC1(C)CCC(CN2CCN(c3ccc(C(=O)NS(=O)(=O)c4ccc(NCC5CCOCC5)c([N+](=O)[O-])c4)c(Oc4cnc5[nH]ccc5c4)c3)CC2)=C(c2ccc(Cl)cc2)C1` [Compound 5, 4-(4-{[2-(4-chlorophenyl)-4,4-dimethylcyclohex-1-en-1-yl]methyl}piperazin-1-yl)-N-({3-nitro-4-[(tetrahydro-2H-pyran-4-ylmethyl)amino]phenyl}sulfonyl)-2-(1H-pyrrolo[2,3-b]pyridin-5-yloxy)benzamide], the CL/F [1, 3] was 4.7 L/h, the Cmax/Dose [1, 3] was 0.008 (μg/mL)/mg and the CL/F [1, 4] was 8.6 L/h. The Cmax/Dose [1, 4] was 0.0037 (μg/mL)/mg, the Tmax ([1]; human CLL, Week 1 Day-3 single dose, Subject 1, 200 mg, 50 mg tablets) was 6 h and the CL/F [1, 5] was 2.6 L/h. For the same molecule, the Cmax/Dose [1, 5] was 0.0079 (μg/mL)/mg, the CL/F [1, 6] was 2.8 L/h and the Cmax/Dose [1, 6] was 0.0119 (μg/mL)/mg. The CL/F [1, 7] was 7.1 L/h, the Cmax/Dose [1, 7] was 0.0089 (μg/mL)/mg and the Tmax [1, 7] was 8 h. The “time to reach Cmax” value ([1]; human subjects) was “around 7 hours”, the “predicted AUC” value ([1]; human, 200 mg dose, predicted) was 30000 ng·h/mL and the “observed AUC versus predicted AUC” value ([1]; human, normalized to 200 mg dose) was “about 2 fold”. It also gave a Cmax [1, 8] of 1190 ng/mL, an AUC(0-inf) [1, 8] of 36300 ng·h/mL and a half-life ([1]; human, plasma, oral, 100 mg, human CLL, Week 1 Day-3 single dose, Subject 3, 100 mg, read-out: t1/2 (converted)) of 22.1 h. For the same molecule, the Cmax ([1]; human, plasma, oral, 150 mg, human CLL, Week 3 Day 1, QD dosing, ID 101, 150 mg) was 1340 ng/mL, the AUC ([1]; human, plasma, oral, 150 mg, read-out: AUC (AUCss,24)) was 21100 ng·h/mL and the Cmax [1, 9] was 730 ng/mL. It also gave an AUC(0-inf) [1, 9] of 23300 ng·h/mL, a half-life ([1]; human, plasma, oral, 200 mg, human CLL, Week 1 Day-3 single dose, Subject 1, 200 mg, read-out: t1/2 (converted)) of 30.6 h and a Cmax [1, 10] of 1570 ng/mL. For the same molecule, the AUC(0-inf) [1, 10] was 76000 ng·h/mL, the half-life ([1]; human, plasma, oral, 200 mg, human CLL, Week 1 Day-3 single dose, Subject 2, 200 mg, read-out: t1/2 (converted)) was 50.9 h and the half-life ([1]; human, plasma, oral, human CLL, Week 1 Day-3 single dose, Harmonic Mean of 3 subjects, read-out: t1/2 (converted)) was 30.7 h. For the same molecule, the half-life ([1]; human, plasma, oral, human subjects, observed, read-out: terminal elimination half-life (converted)) was 31 h, the “clearance, predicted value” ([1]; human, predicted) was 10 L/h and the “terminal elimination half-life, predicted value” ([1]; human, predicted) was 15 h. For the same molecule, the Tmax ([1]; plasma, oral, human CLL, Week 1 Day-3 single dose, Mean of 3 subjects, read-out: Tmax) was 7.3 h, the clearance ([1]; plasma, oral, human subjects, observed) was 78.3 mL/min and the “adverse event after the first dose” value ([1]; three CLL subjects, first cohort, initial dose 100-200 mg, 50 mg tablet form, all subjects) was “tumor lysis syndrome”.
`COCCON1C=C(Cl)C=C(S(=O)(=O)NC(=O)c2ccc(N3CCN(CC4=C(c5ccc(Cl)cc5)CC(C)(C)CC4)CC3)cc2Oc2cnc3[nH]ccc3c2)C1` [Compound 292, N-{[5-chloro-1-(2-methoxyethoxy)pyridin-3-yl]sulfonyl}-4-(4-{[2-(4-chlorophenyl)-4,4-dimethylcyclohex-1-en-1-yl]methyl}piperazin-1-yl)-2-(1H-pyrrolo[2,3-b]pyridin-5-yloxy)benzamide] showed a Ki (Bcl-2 protein) of 0.19 nM.
With `CC1(C)CCC(CN2CCN(c3ccc(C(=O)NS(=O)(=O)c4ccc(NCC5CCC(C)(O)CC5)c([N+](=O)[O-])c4)c(Oc4cnc5[nH]ccc5c4)c3)CC2)=C(c2ccc(Cl)cc2)C1` (stereo not drawn) [Compound 337, 4-(4-{[2-(4-chlorophenyl)-4,4-dimethylcyclohex-1-en-1-yl]methyl}piperazin-1-yl)-N-[(4-{[(trans-4-hydroxy-4-methylcyclohexyl)methyl]amino}-3-nitrophenyl)sulfonyl]-2-(1H-pyrrolo[2,3-b]pyridin-5-yloxy)benzamide] the “log D” value [2] was 5.48.
For `CC1(C)CCC(CN2CCN(c3ccc(C(=O)NS(=O)(=O)c4ccc(NCC5CCC(C)(O)CC5)c([N+](=O)[O-])c4)c(Oc4cnc5[nH]ccc5c4)c3)CC2)=C(c2ccc(Cl)cc2)C1` (stereo not drawn) [Compound 338, 4-(4-{[2-(4-chlorophenyl)-4,4-dimethylcyclohex-1-en-1-yl]methyl}piperazin-1-yl)-N-[(4-{[(cis-4-hydroxy-4-methylcyclohexyl)methyl]amino}-3-nitrophenyl)sulfonyl]-2-(1H-pyrrolo[2,3-b]pyridin-5-yloxy)benzamide], the “log D” value [2] was 5.67.
`CC1(O)CCC(COc2ncc(S(=O)(=O)NC(=O)c3ccc(N4CCN(CC5=C(c6ccc(Cl)cc6)CC6(CC5)CC6)CC4)cc3Oc3cnc4[nH]ccc4c3)cc2Cl)CC1` (stereo not drawn) [Compound 341, N-({5-chloro-6-[(trans-4-hydroxy-4-methylcyclohexyl)methoxy]pyridin-3-yl}sulfonyl)-4-(4-{[5-(4-chlorophenyl)spiro[2.5]oct-5-en-6-yl]methyl}piperazin-1-yl)-2-(1H-pyrrolo[2,3-b]pyridin-5-yloxy)benzamide] showed a Ki (Bcl-2 protein) of under 0.01 nM.
Work on `CC1(C)CCC(CN2CCN(c3ccc(C(=O)NS(=O)(=O)c4cnc(OCC5(F)CCC(O)CC5)c(Cl)c4)c(Oc4cnc5[nH]ccc5c4)c3)CC2)=C(c2ccc(Cl)cc2)C1` (stereo not drawn) [Compound 350, N-({5-chloro-6-[(cis-1-fluoro-4-hydroxycyclohexyl)methoxy]pyridin-3-yl}sulfonyl)-4-(4-{[2-(4-chlorophenyl)-4,4-dimethylcyclohex-1-en-1-yl]methyl}piperazin-1-yl)-2-(1H-pyrrolo[2,3-b]pyridin-5-yloxy)benzamide] yielded a Ki (Bcl-2 protein) of under 0.01 nM.
For `CC1(C)CCC(CN2CCN(c3ccc(C(=O)NS(=O)(=O)c4ccc(OCC5CCC(C)(O)CC5)c(Cl)c4)c(Oc4cnc5[nH]ccc5c4)c3)CC2)=C(c2ccc(Cl)cc2)C1` (stereo not drawn) [Compound 362, N-({3-chloro-4-[(trans-4-hydroxy-4-methylcyclohexyl)methoxy]phenyl}sulfonyl)-4-(4-{[2-(4-chlorophenyl)-4,4-dimethylcyclohex-1-en-1-yl]methyl}piperazin-1-yl)-2-(1H-pyrrolo[2,3-b]pyridin-5-yloxy)benzamide], the Ki (Bcl-2 protein) was 0.016 nM.
With `CC1(C)CCC(CN2CCN(c3ccc(C(=O)NS(=O)(=O)c4cnc(NCC5CCC(C)(O)CC5)c([N+](=O)[O-])c4)c(Oc4cnc5[nH]ccc5c4)c3)CC2)=C(c2ccc(Cl)cc2)C1` (stereo not drawn) [Compound 371, 4-(4-{[2-(4-chlorophenyl)-4,4-dimethylcyclohex-1-en-1-yl]methyl}piperazin-1-yl)-N-[(6-{[(trans-4-hydroxy-4-methylcyclohexyl)methyl]amino}-5-nitropyridin-3-yl)sulfonyl]-2-(1H-pyrrolo[2,3-b]pyridin-5-yloxy)benzamide] the Ki (Bcl-2 protein) was under 0.001 nM.
Molecule `CC1(C)CCC(CN2CCN(c3ccc(C(=O)NS(=O)(=O)c4cnc(NCC5CCC(C)(O)CC5)c([N+](=O)[O-])c4)c(Oc4cnc5[nH]ccc5c4)c3)CC2)=C(c2ccc(Cl)cc2)C1` (stereo not drawn) [Compound 376, 4-(4-{[2-(4-chlorophenyl)-4,4-dimethylcyclohex-1-en-1-yl]methyl}piperazin-1-yl)-N-[(6-{[(cis-4-hydroxy-4-methylcyclohexyl)methyl]amino}-5-nitropyridin-3-yl)sulfonyl]-2-(1H-pyrrolo[2,3-b]pyridin-5-yloxy)benzamide] has a Ki (Bcl-2 protein) of under 0.001 nM.
For `COC1(C)CCC(c2ccc(Cl)cc2)=C(CN2CCN(c3ccc(C(=O)NS(=O)(=O)c4ccc(NCC5CCC(C)(O)CC5)c([N+](=O)[O-])c4)c(Oc4cnc5[nH]ccc5c4)c3)CC2)C1` (stereo not drawn) [Compound 377, 4-(4-{[2-(4-chlorophenyl)-5-methoxy-5-methylcyclohex-1-en-1-yl]methyl}piperazin-1-yl)-N-[(4-{[(trans-4-hydroxy-4-methylcyclohexyl)methyl]amino}-3-nitrophenyl)sulfonyl]-2-(1H-pyrrolo[2,3-b]pyridin-5-yloxy)benzamide], the Ki (Bcl-2 protein) was under 0.001 nM.
